According to patent US20170172909A1, “Method Of Counteracting The Impact Of Chronic Stress On Skin” (ELC MANAGEMENT LLC, priority 2015, published 2017):
Several values for one entry are separate records, joined by “and”; a condition that tells them apart may be missing. Identical values can stand only once.

Legend:
[1] = system: skin explants from the abdominal tissue; assay: General morphology of ex vivo skin explants, cortisol-induced premature senescence (Masson's trichrome); format: cell-based, human
Description: Thirty three skin explants from the abdominal tissue of a donor, of an average diameter of 10 mm (±1 mm) were prepared.
The formula with 0.1% cortisol was applied topically on days 2, 5, 6 and 7.
On day 0, the three explants from the batch BO were collected and cut in two parts. One half was fixed in buffered formalin, and the other half was frozen at −80° C. On day 9, three explants from all other batches were collected and processed in the same way.
Sections were then mounted on Superfrost® plus silanized glass slides. The microscopical observations were made using a Leica DMLB or Orthoplan microscope. Pictures were digitized with a numeric DP72 Olympus camera with CellD storing software.
The observation of the general morphology was realized after staining of paraffinized sections according to Masson's trichrome, Goldner variant.

p21 = p21 immunostaining of ex vivo skin explants; format: cell-based, human
Description: (§4) After fixation for 24 hours in buffered formalin, the samples were dehydrated and impregnated in paraffin using a Leica TP 1010 dehydration automat. The samples were then embedded using a Leica EG 1160 embedding station. 5-μm-thick sections were made using a Leica RM 2125 Minot-type microtome, and the sections were then mounted on Superfrost® histological glass slides.
(§5) The immunostaining was assessed by microscopical observation.
The evaluation of the p21 immunostained pictures was based on both the number of cells that were stained as well as the staining intensity in each cell.

progerin = assay: Progerin immunostaining of ex vivo skin explants; format: cell-based, human
Description: as §4, §5
Progerin staining intensity was measured in a similar way as for p21.

elastin = assay: Elastin release by HDFs (Elastin Elisa); format: cell-based, human; conditions: 2.5 mg/ml, 72 hours
Description: (§1) HDFs, at passage 4, were plated in 96 well plates. After the cells reached confluency they were placed under starvation conditions for 48 hours. Cells then were treated with test materials in cell medium for 72 hours after which the medium was collected for analysis of elastin (Elastin Elisa assay, SOP D.33). Cell viability also was measured using the MTT assay (SOP D.29). Statistical analysis was performed with an ANOVA+Fisher LSD post hoc test. A p value of less than 0.05 was considered significant.
(§2) The results are presented as pg/ml elastin corrected for viability. The percent increase in elastin release is calculated as:
(§3) % increase=[Amount Elastinactive/Amount Elastincontrol]×100−100

fibroblasts from eyelid = assay: GlaSbox contractile forces on collagen lattices, with or without cortisol, eyelid fibroblasts; format: cell-based, human; conditions: cortisol 250 ng/ml
Excerpt: In this study, the GlaSbox® system was used to analyze the effect of cortisol, with and without test materials, on the contractile forces generated by fibroblasts populating collagen lattices. The GlaSbox® device differs from other collagen lattice systems in that it uses a fixed, non-floating collagen lattice where the diameter of the collagen lattice remains constant but electrodes measure the actual contractile forces exerted by the cells on the collagen lattice. Fibroblasts were obtained from eyelid and abdominal skin of Chinese female donors. The effect of Biobenefity and Albizia julibrissin on the contractile forces of fibroblasts originating from eyelid, with or without exposure to cortisol (250 ng/ml), were evaluated. Two fibroblast cell types, one originating from eyelid and the other one from abdominal skin tissue, were purchased from Tebu-Bio (Boechout, Belgium). These cell types were isolated from different donors, each being a person. The fibroblasts were embedded three-dimensionally in hydrated collagen gel lattices. […] The forces are expressed as arbitrary units. […] Data are expressed as mean±standard deviation. The measurement of contractile forces was analyzed by means of a variance analysis with two factors (group versus control and time). […]

[2] = system: fibroblasts from abdominal skin; assay: GlaSbox contractile forces on collagen lattices, with or without cortisol, abdominal fibroblasts; format: cell-based, human; conditions: cortisol 250 ng/ml
Excerpt: In this study, the GlaSbox® system was used to analyze the effect of cortisol, with and without test materials, on the contractile forces generated by fibroblasts populating collagen lattices. The GlaSbox® device differs from other collagen lattice systems in that it uses a fixed, non-floating collagen lattice where the diameter of the collagen lattice remains constant but electrodes measure the actual contractile forces exerted by the cells on the collagen lattice.
Fibroblasts were obtained from eyelid and abdominal skin of Chinese female donors. The effect of Biobenefity and Albizia julibrissin on the contractile forces of fibroblasts originating from eyelid, with or without exposure to cortisol (250 ng/ml), were evaluated.
Two fibroblast cell types, one originating from eyelid and the other one from abdominal skin tissue, were purchased from Tebu-Bio (Boechout, Belgium). These cell types were isolated from different donors, each being a person. […] The forces are expressed as arbitrary units.
Each Glasbox® curve was fitted with GraphPad Prism® software to determine the area under the curve (AUC) and the maximum of contraction (Max). […] Data are expressed as mean±standard deviation. The measurement of contractile forces was analyzed by means of a variance analysis with two factors (group versus control and time). […]

[3] = system: Human dermal fibroblasts (HDFs); assay: Free floating fibroblast-populated collagen lattice (FPCL) contraction; format: cell-based
Description: Human dermal fibroblasts (HDFs, passages 6-7) were maintained in Falcon 75 cm^2 tissue culture flasks in DMEM supplemented with 10% FBS. Cells were harvested from monolayer culture, and placed in 6-well culture plates (1×10^5 cells/well). Cells were pretreated with 25 μM hydrocortisone or with a combination of 25 μM hydrocortisone and different concentrations of test materials for 24 hours before being applied to free floating fibroblast populated collagen lattices.
Gels containing collagen HDFs were prepared as described by Tomasek, J. J., et al. (Fibroblast contraction occurs on release of tension in attached collagen lattices: dependency on an organized actin cytoskeleton and serum. Anat. Rec., 1992, March; 232(3):359-68), incorporated herein by reference in its entirety, with modifications as follows. Briefly, collagen solution (Corning, Rat tail, 354236), concentrated DMEM, 0.1N NaOH and FBS, were gently mixed at 4° C., giving a suspension at a final density of 5×10^5 cells and 3 mg/ml collagen. The collagen/cell suspension (2 ml total) was poured on 35 mm-uncoated dish and allowed to polymerize for 45 minutes at 37° C. Then lattices were released and gels were allowed to float in the medium. […]
Fibroblast contractility was assessed by measuring changes in the surface area of collagen I gels mediated by fibroblasts. […] Thereafter, lattice diameter was measured. […]

[4] = system: fibroblasts from an abdominoplasty; assay: GlaSbox contractile forces of fibroblasts on collagen lattices (stimulation, Example 3); format: cell-based, human; conditions: 2.5 ng/ml, 24 hours
Excerpt: In this study, the GlaSbox® system was used to analyze the effect of cosmetic raw materials, TGFβ1, Taisoh Liquid B Jujube Extract (Ziziphus jujuba fruit), available from Ichimaru Pharcos, and Uplevity, available from Lipotec. TGFβ1, used in this study as a positive control, is known to play a role in cellular functions, including cell proliferation, differentiation, wound healing and matrix-related processes. Taisoh Liquid B Jujube Extract has been reported to stimulate wound healing. […]
Fibroblasts were embedded three-dimensionally in hydrated collagen gels composed of 6 volumes of 1.76× (DMEMc, NaHCO3, NaOH, antibiotics), 3 volumes rat tail type I collagen (2 mg/ml) and 1 volume of cellular suspension (8×10^5 cells/ml) using a modified version of the technique developed by Bell et al. (Production of a tissue-like structure by contraction of collagen lattices by human fibroblasts of different proliferative potential in vitro. Proc. Natl. Acad. Sci. USA 76, 1274-1278 (1979). The lattice mixture was poured into the rectangular culture plate of the GlaSbox® and polymerized in less than 30 minutes at 37° C. […] The forces were expressed as arbitrary units (AU) after 24 hours of measurement. […]

tropoelastin = assay: Tropoelastin synthesis by HDFs; format: cell-based, human; conditions: 5 pg/ml
Description: as §1, §2, §3

fibrillin-1 = assay: Fibrillin-1 release by HDFs (sandwich ELISA); format: cell-based, human; conditions: positive control, 100 ng/ml, 24 hours
Description: Fibrillins, glycoproteins secreted by fibroblasts, are essential for the formation of elastic fibers found in connective tissue. Test compounds Mitostime (extract of Laminaria digitata) and Milk Peptide Complex (MPC or whey protein, available from CLR, Germany) were evaluated for their capacity to stimulate the synthesis of fibrillin-1 in HDFs.
An aliquot of a selected fibroblast cell line (HDFs) was thawed, placed into culture, and allowed to establish good growth before passaging into a 24-well plate (5×10^4 cells/1 ml well). After overnight adhesion to the well, test compounds were added to the medium at three different concentrations and the cells were incubated for 24 hours. A positive control of 100 ng/ml TGFβ1, was included. The negative controls used were 0.1% BSA and 0.1% EtOH. After 24 hours, medium was harvested, centrifuged, and transferred to fibrillin-1 sandwich ELISA plates to determine the amount of fibrillin released.

[5] = day 9, with 0.1% cortisol, Biwa leaf, Biobenefity, Juvinity 0.5% w/v, IBR Dormin 0.1% w/v
[6] = 0.1% cortisol, day 9, versus untreated

CC(C)=CCCC(C)=CCCC(C)=CCCC(C)=CCCC(C)O (stereo not shown) [Juvinity, Geranylgeranyl-2-propanol]
General morphology of explants ([1]; day 9, absence of cortisol, Biwa leaf, Biobenefity, Juvinity 0.5% w/v, IBR Dormin 0.1% w/v in medium): altered morphology, with pycnotic nuclei and cellular spongiosis
Effect on cortisol-induced morphology (epidermal thickness) ([1]; day 9, with topical 0.1% cortisol, Biwa leaf, Biobenefity, Juvinity 0.5% w/v, IBR Dormin 0.1% w/v): did not have any beneficial effect
Effect on cortisol-induced increase in p21 staining intensity (p21; [5]): partially reduce
Effect on cortisol-induced increase in progerin staining intensity (progerin; [5]): did not show a beneficial effect

O=C[C@H](O)[C@H](O)[C@H](O)CO [Riboxyl, D-ribose]
Increase in elastin synthesis versus untreated cells (elastin): 66%

C[C@]12CCC(=O)C=C1CC[C@@H]1[C@@H]2[C@@H](O)C[C@@]2(C)[C@H]1CC[C@]2(O)C(=O)CO [cortisol]
General morphology of explants ([1]; 0.1% cortisol topically during 7 days (day 2 to day 9)): moderate epidermal atrophy
p21 staining intensity (semi-quantitative grading) (p21; [6]): from very weak to moderate
Progerin staining intensity (progerin; [6]): increased from weak to moderate
Contractile forces (AUC and maximum contractile force) (fibroblasts from eyelid): significant decrease
Contractile forces (AUC and maximum contractile force) [2]: significant decrease
Decrease of lattice contraction versus untreated lattices ([3]; 25 μM, listed as hydrocortisone): 11.8% and 9%
Decrease of lattice contraction versus untreated lattices ([3]; 50 μM): 18%

TGFβ1: Transforming Growth Factor β, secreted protein used as a positive control
Increase of contractile forces (AUC) [4]: 25.5%
Increase of maximum contraction [4]: 26.0%
Increase in tropoelastin synthesis versus untreated cells (tropoelastin): 175%
Fibrillin release at baseline level (fibrillin-1): stimulate the fibrillin release
